# According to paper PMC4604124, “In Vitro Characterization of the Pharmacological Properties of the Anti-Cancer Chelator, Bp4eT, and Its Phase I Metabolites” (PLoS ONE, 2015):
# “And” between values parts separate entries of the source, which are not always exact repeats. Equal entries are not always repeated. Where two headings read alike, the source gives them in different places.
# Assays:
# [1] = Viability (viabilita) used to normalise caspase activity; type: cell-based, human; conditions: human, MCF-7 cells, kontrola = 100;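 further: compound tested at 100 nM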
# From the text: Supplement pone.0139929.s002.zip/caspases activity.xlsx, sheet "results_viability"
# H9c2 cardiomyoblasts = experiment: MTT cytotoxicity assay, H9c2 cells; type: cell-based, rat; conditions: for IC50: MTT, read-out: IC50
# Method in brief: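 72 h/37°C exposure, 0.1% DMSO. Plating: MCF-7 5,000; HCT116, A549 2,000; H9c2 10,000 cells/well, H9c2 switched to serum/pyruvate-free DMEM 24 h. MTT OD 570 nm, 690 nm background subtracted. Viability as % untreated control; IC50 derived.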
# MCF-7 cells = experiment: Epifluorescence microscopy, triple staining MDC / annexin V-FITC / propidium iodide; type: cell-based, human; conditions: Bp4eT 10 or 100 nM 72 h, rapamycin 1 nM 30 min
# Method: Markers used to assess autophagy/apoptosis/necrosis in MCF-7 cells and changes of lysosomal and mitochondrial morphology were observed using an Eclipse Ti inverted epifluorescence microscope (Nikon, Tokyo, Japan), that was equipped with a cooled digital camera Zyla 5.5 sCMOS (Andor Technology, Belfast, UK), and NIS-Elements C 4.1 software (Laboratory Imaging, Prague, Czech Republic). The MCF-7 cells were seeded in 6-well plates with cover slips on the bottom at a density of 150,000 cells/well and incubated as described above in the presence or absence of 10 or 100 nM Bp4eT.
# To assess the mechanism of cellular death after incubation with Bp4eT, triple staining with monodansyl cadaverine (MDC; 50 μM; λex = 390 nm; λem = 455 nm; Sigma-Aldrich), annexin V-FITC (5 μL/mL; λex = 495 nm; λem = 519 nm; Invitrogen, Carlsbad, CA, USA), and propidium iodide (5 μg/mL; λex = 560 nm; λem = 630 nm) was used. MDC is a marker of autophagosomes and lysosomes and results in blue fluorescence. As a positive control for autophagy, MCF-7 cells were incubated with 1 nM rapamycin (Sigma-Aldrich) for 30 min/37°C, which is an established inducer of autophagy. Annexin V has high affinity to phosphatidylserine, which is translocated to the surface of both early- and late-stage apoptotic cells. […]
# [2] = test system: cancer cells (HL-60, MCF-7, HCT116, A549) and non-cancerous cells (H9c2, 3T3); experiment: MTT cytotoxicity assay, summary over the cell line panel; type: cell-based
# Method: For cytotoxicity experiments, cancer cells were seeded at a density of 5,000 (MCF-7), 10,000 (HL-60) or 2,000 cells/well (HCT116 and A549) in 96-well plates (TPP) for 24 h/37°C prior to the addition of examined agents. The non-cancerous cells, 3T3 and H9c2 cells, were cultured for 24 h/37°C in 96-well plates at a density of 10,000 cells/well, the medium was then changed to serum- and pyruvate-free DMEM (Sigma-Aldrich) and incubated with the cells for another 24 h/37°C. The cytotoxic effects of Bp4eT and its metabolites were studied at different concentrations after a 72 h/37°C incubation. In order to aid the dissolution of the lipophilic ligands, 0.1% dimethyl sulfoxide (v/v) (DMSO; Sigma-Aldrich) was present in the culture medium of all groups. At this concentration, DMSO had no effect on cellular proliferation or viability.
# The viability of cells were determined using an MTT assay (Sigma-Aldrich) according to previously established methods. The optical density of soluble MTT was measured at λ = 570 nm, subtracting the λ = 690 nm background using a Tecan Infinite 200M plate reader (Tecan Group, Männedorf, Switzerland). The viability or proliferation of experimental groups was expressed as a percentage of the untreated controls (100%).
# SigmaStat for Windows 3.5 (Systat Software, San Jose, CA, USA) statistical software package was utilized to analyze results. The data are expressed as the mean ± SD of a given number of experiments. Statistical significance was determined using a one-way ANOVA with a Bonferroni post-hoc test or Student’s t-test. The results were considered to be statistically significant when p < 0.05. The IC50 values were calculated using CalcuSyn 2.0 software (Biosoft, Cambridge, UK). Cell cycle analysis was evaluated using MultiCycle AV Software (Phoenix Flow Systems, San Diego, CA, USA).
# [3] = MTT cytotoxicity assay, 3T3 cells; type: cell-based, mouse; conditions: mouse, 3T3 mouse embryo fibroblasts, 3T3, 10 000 b/j; for viability at 72 h, 3 nM: koncentrace 3 nM; for viability at 72 h, 10 nM: koncentrace 10 nM; for viability at 72 h, 30 nM: koncentrace 30 nM; for viability at 72 h, 100 nM: koncentrace 100 nM; for viability at 72 h, 300 nM: koncentrace 300 nM; for viability at 72 h, 1000 nM: koncentrace 1000 nM; for viability at 72 h, 3000 nM: koncentrace 3000 nM
# Method in brief: (§1)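 Non-cancerous 3T3 mouse embryo fibroblasts were plated at 10,000 cells/well in 96-well plates and cultured for 24 h/37°C. The medium was then replaced with serum- and pyruvate-free DMEM for a further 24 h/37°C. Cells were exposed to agents for 72 h/37°C with 0.1% DMSO present, and viability was measured by MTT.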
# [4] = test system: 3T3 mouse embryo fibroblasts; experiment: MTT cytotoxicity assay, 3T3 cells; type: cell-based; conditions: for IC50: MTT
# Method in brief: as §1
# [5] = individual experiments, read-out: MTT viability (0 = 100)
# [6] = mean, read-out: MTT viability (0 = 100), průměr
compound,measurement,setting,value
"CCNC(=S)NN=C(c1ccccc1)c1ccccn1 [Bp4eT, 2-benzoylpyridine 4-ethyl-3-thiosemicarbazone]","viability at 3 h, 100 nM",[1]; 3 hodiny,96.3%
same,"viability at 24 h, 100 nM",[1]; 24 hodin,52.8%
same,"viability at 72 h, 100 nM",[1]; 72 hodin,27.1%
same,"MTT, relative to control (0 = 100)","H9c2 cardiomyoblasts; H9c2, 10 000 b/j, 3 nM, průměr (mean)",99.21
same,"MTT, relative to control (0 = 100)","H9c2 cardiomyoblasts; H9c2, 10 000 b/j, 3 nM, single experiment (date)",102.894 and 97.5415 and 98.1925 and 99.1728 and 98.234
same,"MTT, relative to control (0 = 100)","H9c2 cardiomyoblasts; H9c2, 10 000 b/j, 10 nM, průměr (mean)",97.95
same,"MTT, relative to control (0 = 100)","H9c2 cardiomyoblasts; H9c2, 10 000 b/j, 10 nM, single experiment (date)",93.4128 and 99.1411 and 98.6466 and 98.7917 and 99.7545
same,"MTT, relative to control (0 = 100)","H9c2 cardiomyoblasts; H9c2, 10 000 b/j, 30 nM, průměr (mean)",93.46
same,"MTT, relative to control (0 = 100)","H9c2 cardiomyoblasts; H9c2, 10 000 b/j, 30 nM, single experiment (date)",89.8997 and 94.1191 and 90.5168 and 97.6473 and 95.1275
same,"MTT, relative to control (0 = 100)","H9c2 cardiomyoblasts; H9c2, 10 000 b/j, 100 nM, průměr (mean)",83.34
same,"MTT, relative to control (0 = 100)","H9c2 cardiomyoblasts; H9c2, 10 000 b/j, 100 nM, single experiment (date)",88.1519 and 73.0922 and 83.4003 and 88.2 and 83.8639
same,"MTT, relative to control (0 = 100)","H9c2 cardiomyoblasts; H9c2, 10 000 b/j, 300 nM, průměr (mean)",64.46
same,"MTT, relative to control (0 = 100)","H9c2 cardiomyoblasts; H9c2, 10 000 b/j, 300 nM, single experiment (date)",78.5818 and 47.7898 and 54.7281 and 65.2971 and 75.8815
same,"MTT, relative to control (0 = 100)","H9c2 cardiomyoblasts; H9c2, 10 000 b/j, 1000 nM, průměr (mean)",35.85
same,"MTT, relative to control (0 = 100)","H9c2 cardiomyoblasts; H9c2, 10 000 b/j, 1000 nM, single experiment (date)",36.8685 and 33.593 and 34.7888 and 38.1329
same,"MTT, relative to control (0 = 100)","H9c2 cardiomyoblasts; H9c2, 10 000 b/j, 3000 nM, průměr (mean)",31.03
same,"MTT, relative to control (0 = 100)","H9c2 cardiomyoblasts; H9c2, 10 000 b/j, 3000 nM, single experiment (date)",33.7493 and 30.5962 and 27.1956 and 32.5967
same,IC50,"H9c2 cardiomyoblasts; H9c2, 10 000 b/j, single experiment (date)",360 nM and 438 nM and 587 nM
same,IC50,"H9c2 cardiomyoblasts; Rattus norvegicus, H9c2, 72 h, H9c2, 72 h/37°C, mean ± SD, n ≥ 4",524 ± 157 nM
same,IC50,"H9c2 cardiomyoblasts; Rattus norvegicus, H9c2, H9c2, 10 000 b/j, průměr (mean)",524 nM
same,IC50,"H9c2 cardiomyoblasts; Rattus norvegicus, H9c2, H9c2, 10 000 b/j, single experiment (date)",713 nM
same,"Staining for autophagy/apoptosis/necrosis (MDC, annexin V-FITC, propidium iodide)",MCF-7 cells,dose-dependent increase in the number of green annexin V-stained cell membranes or bodies
same,IC50,"[2]; HL-60, MCF-7 and HCT116 cells, 72 h, read-out: IC50, range over cell lines",3 to 15 nM
same,"Therapeutic indices, range","[2]; towards HL-60, MCF-7 and HCT116 cancer cells",34.9–436.3
same,"viability at 72 h, 3 nM",[3]; [5],101%
same,"viability at 72 h, 3 nM",[3]; [6],102%
same,"viability at 72 h, 10 nM",[3]; [5],93.7%
same,"viability at 72 h, 10 nM",[3]; [6],98.6%
same,"viability at 72 h, 30 nM",[3]; [5],89%
same,"viability at 72 h, 30 nM",[3]; [6],91.5%
same,"viability at 72 h, 100 nM",[3]; [5],75.4%
same,"viability at 72 h, 100 nM",[3]; [6],72.8%
same,"viability at 72 h, 300 nM",[3]; [5],72.4%
same,"viability at 72 h, 300 nM",[3]; [6],69.4%
same,"viability at 72 h, 1000 nM",[3]; [5],49.5%
same,"viability at 72 h, 1000 nM",[3]; [6],56.6%
same,"viability at 72 h, 3000 nM",[3]; [5],32.5%
same,"viability at 72 h, 3000 nM",[3]; [6],40.5%
same,IC50,"[4]; 3T3, 10 000 b/j, individual experiments, read-out: IC50",1080 nM and 1700 nM and 1480 nM
same,MTT viability (0 = 100),"[4]; 3T3, 10 000 b/j, koncentrace 3 nM, individual experiments",107.858 and 101.159 and 95.977
same,MTT viability (0 = 100),"[4]; 3T3, 10 000 b/j, koncentrace 10 nM, individual experiments",95.2009 and 97.9751 and 101.968 and 103.897
same,MTT viability (0 = 100),"[4]; 3T3, 10 000 b/j, koncentrace 30 nM, individual experiments",82.5017 and 95.1437 and 97.4935 and 93.6042
same,MTT viability (0 = 100),"[4]; 3T3, 10 000 b/j, koncentrace 100 nM, individual experiments",72.3252 and 75.1668 and 68.1869
same,MTT viability (0 = 100),"[4]; 3T3, 10 000 b/j, koncentrace 300 nM, individual experiments",69.1649 and 63.247 and 72.6411
same,MTT viability (0 = 100),"[4]; 3T3, 10 000 b/j, koncentrace 1000 nM, individual experiments",57.0662 and 64.2452 and 55.7111
same,MTT viability (0 = 100),"[4]; 3T3, 10 000 b/j, koncentrace 3000 nM, individual experiments",36.2815 and 49.6279 and 43.6868
same,IC50,"[4]; Mus musculus, Fibroblast, 3T3, 10 000 b/j, individual experiments, read-out: IC50",977 nM
same,IC50,"[4]; Mus musculus, Fibroblast, 3T3, 10 000 b/j, mean, read-out: IC50, průměr",1310 nM
same,IC50,"[4]; Mus musculus, Fibroblast, 72 h, 3T3, 72 h/37°C, mean ± SD, n ≥ 4, read-out: IC50",1310 ± 337 nM
